Like-named read-outs stand apart in the source and are kept apart here.
Target: T1, human motilin receptor (GPR38) (Homo sapiens, UniProt O43193)
T1 construct: expressed in transfected cells; host or cells: CHO-K1
Assay: GPR38 (Motilin Receptor) Functional Assay, NFAT-beta-lactamase reporter in CHO-K1 cells
Assay type: cell-based
Description: The potencies and efficacies of the compounds of this invention for GPR38 can be determined by reporter assay performed on the human cloned receptor as described herein.
GPR38 (Motilin Receptor) Functional Assay
A CHO-K1 cell line stably transfected NFAT-beta-lactamase reporter and human motilin receptor gene was used. The cells were cultured in culture medium (Dulbecco's modified eagle medium containing 10% fetal bovine serum, 1 mM sodium pyruvate, 0.1 mM MEM nonessential amino acids, 25 mM HEPES buffer, 50 units/mL penicillin, 50 microg/mL streptomycin, 100 microg/mL zeocin, and 500 microg/mL G418). The cells were harvested with 0.05% trypsin EDTA and centrifuged. The cell pellets were resuspended in the culture medium and plated into a black/clear bottom 384-well plate at a density of 8000 cells per well, then incubated at 37° C. with 5% CO2 for over night (about 20 hours). On the day of assay, the culture medium was aspirated and 20 microL of assay medium (Dulbecco's modified eagle medium containing 100 units/mL penicillin and 100 microg/mL streptomycin) was added to each well, then the cell plates were placed in incubator at 37° C. with 5% CO2 for 1.5 hours. Compounds were prepared in 100% DMSO and these were diluted to 5× of final concentration with assay buffer (Hanks balanced salt solution, 20 mM HEPES, and 0.1% BSA), then dispensed into 384-well plate (5 microL/well). After incubation at 37° C. with 5% CO2 for 4.5 hours, CCF4-AM loading solution (Invitrogen Corp.) was added to each well. After incubation for 2 hours at room temperature, fluorescence intensities were measured by using plate reader FDSS (Hamamatsu Photonics K. K.) with excitation 400 nm, emission 465 nm/540 nm. Agonistic activity (EC50) was calculated from the sigmoidal dose-response curve using GraphPad Prism software (GraphPad Software, Inc.).

T1 sequence (O43193 whole entry): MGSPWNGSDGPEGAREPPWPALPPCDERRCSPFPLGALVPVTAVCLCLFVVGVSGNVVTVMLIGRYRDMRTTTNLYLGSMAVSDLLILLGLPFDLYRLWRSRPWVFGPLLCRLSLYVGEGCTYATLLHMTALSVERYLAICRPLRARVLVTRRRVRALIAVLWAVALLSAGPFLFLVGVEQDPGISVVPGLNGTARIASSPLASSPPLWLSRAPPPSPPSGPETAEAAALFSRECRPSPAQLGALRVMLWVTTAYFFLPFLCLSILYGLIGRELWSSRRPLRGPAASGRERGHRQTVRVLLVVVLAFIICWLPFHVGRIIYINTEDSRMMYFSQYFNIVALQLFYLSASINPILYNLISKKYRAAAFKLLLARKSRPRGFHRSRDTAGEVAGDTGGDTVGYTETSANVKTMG

Row | Compound | EC50 [nM] | EC50 (ED50 (nM), Table 15, functional activity toward GPR38 (motilin receptor), (S) versus (R) amino acid linker) [nM]
1 | CN[C@@H]1CC[C@H](C(=O)N[C@@H](Cc2cccc(F)c2)C(=O)N2CCC(N3C(=O)C(C)(C)c4ccccc43)CC2)C1 [Example 28, (1S,3R)-N-((S)-1-(4-(3,3-dimethyl-2-oxoindolin-1-yl)piperidin-1-yl)-3-(3-fluorophenyl)-1-oxopropan-2-yl)-3-(methylamino)cyclopentane-carboxamide] | ≤ 10 | –
2 | CN[C@@H]1CC[C@H](C(=O)N[C@@H](Cc2cccc(Cl)c2)C(=O)N2CCC(N3C(=O)C(C)(C)c4ccccc43)CC2)C1 [Example 29, (1S,3R)-N-((S)-3-(3-chlorophenyl)-1-(4-(3,3-dimethyl-2-oxoindolin-1-yl)piperidin-1-yl)-1-oxopropan-2-yl)-3-(methylamino)cyclopentane-carboxamide] | ≤ 10 | –
3 | CN[C@@H]1CC[C@H](C(=O)N[C@@H](Cc2ccccc2)C(=O)N2CCC(N3C(=O)C(C)(C)c4ccccc43)CC2)C1 [Example 30, (1S,3R)-N-((S)-1-(4-(3,3-dimethyl-2-oxoindolin-1-yl)piperidin-1-yl)-1-oxo-3-phenylpropan-2-yl)-3-(methylamino) cyclopentanecarboxamide] | ≤ 10 | –
4 | CN[C@@H]1CC[C@H](C(=O)N[C@@H](Cc2cccc(OC)c2)C(=O)N2CCC(N3C(=O)C(C)(C)c4ccccc43)CC2)C1 [Example 31, (1S,3R)-N-((S)-1-(4-(3,3-dimethyl-2-oxoindolin-1-yl)piperidin-1-yl)-3-(3-methoxyphenyl)-1-oxopropan-2-yl)-3-(methylamino)cyclopentane-carboxamide] | ≤ 10 | –
5 | CN[C@@H]1CC[C@H](C(=O)N[C@@H](Cc2ccccc2F)C(=O)N2CCC(N3C(=O)C(C)(C)c4ccccc43)CC2)C1 [Example 32, (1S,3R)-N-((S)-1-(4-(3,3-dimethyl-2-oxoindolin-1-yl)piperidin-1-yl)-3-(2-fluorophenyl)-1-oxopropan-2-yl)-3-(methylamino)cyclopentane-carboxamide] | ≤ 10 | –
6 | CN[C@@H]1CC[C@H](C(=O)N[C@@H](CC(C)C)C(=O)N2CCC(N3C(=O)C(C)(C)c4ccccc43)CC2)C1 [Example 33, (1S,3R)-N-((S)-1-(4-(3,3-dimethyl-2-oxoindolin-1-yl)piperidin-1-yl)-4-methyl-1-oxopentan-2-yl)-3-(methylamino) cyclopentanecarboxamide] | ≤ 10 | –
7 | CN[C@@H]1CC[C@H](C(=O)N[C@@H](Cc2c[nH]c3ccccc23)C(=O)N2CCC(N3C(=O)C(C)(C)c4ccccc43)CC2)C1 [Example 34, (1S,3R)-N-((S)-1-(4-(3,3-dimethyl-2-oxoindolin-1-yl)piperidin-1-yl)-3-(1H-indol-3-yl)-1-oxopropan-2-yl)-3-(methylamino)cyclopentane-carboxamide] | ≤ 10 | –
8 | CN[C@@H]1CC[C@H](C(=O)N[C@@H](Cc2cccc(C(F)(F)F)c2)C(=O)N2CCC(N3C(=O)C(C)(C)c4ccccc43)CC2)C1 [Example 35, (1S,3R)-N-((S)-1-(4-(3,3-dimethyl-2-oxoindolin-1-yl)piperidin-1-yl)-1-oxo-3-(3-(trifluoromethyl)phenyl)propan-2-yl)-3-(methylamino)cyclo-pentanecarboxamide] | ≤ 10 | –
9 | CN[C@@H]1CC[C@H](C(=O)N[C@@H](Cc2ccc(C(F)(F)F)cc2)C(=O)N2CCC(N3C(=O)C(C)(C)c4ccccc43)CC2)C1 [Example 36, (1S,3R)-N-((S)-1-(4-(3,3-dimethyl-2-oxoindolin-1-yl)piperidin-1-yl)-1-oxo-3-(4-(trifluoromethyl)phenyl)propan-2-yl)-3-(methylamino)cyclo-pentanecarboxamide] | ≤ 10 | –
10 | CN[C@@H]1CC[C@H](C(=O)N[C@@H](Cc2ccc(OC)cc2)C(=O)N2CCC(N3C(=O)C(C)(C)c4ccccc43)CC2)C1 [Example 37, (1S,3R)-N-((S)-1-(4-(3,3-dimethyl-2-oxoindolin-1-yl)piperidin-1-yl)-3-(4-methoxyphenyl)-1-oxopropan-2-yl)-3-(methylamino)cyclopentanecarboxamide] | ≤ 10 | –
11 | CN[C@@H]1CC[C@H](C(=O)N[C@@H](COc2ccccc2)C(=O)N2CCC(N3C(=O)C(C)(C)c4ccccc43)CC2)C1 [Example 38, (1S,3R)-N-((S)-1-(4-(3,3-dimethyl-2-oxoindolin-1-yl)piperidin-1-yl)-1-oxo-3-phenoxypropan-2-yl)-3-(methyl-amino)cyclopentanecarboxamide] | ≤ 10 | –
12 | CN[C@@H]1CC[C@H](C(=O)N[C@@H](COc2ccccc2Cl)C(=O)N2CCC(N3C(=O)C(C)(C)c4ccccc43)CC2)C1 [Example 39, (1S,3R)-N-((S)-3-(2-chlorophenoxy)-1-(4-(3,3-dimethyl-2-oxoindolin-1-yl)piperidin-1-yl)-1-oxopropan-2-yl)-3-(methylamino)cyclopentanecarboxamide] | ≤ 10 | –
13 | CN[C@@H]1CC[C@H](C(=O)N[C@H](CC(=O)N2CCC(N3C(=O)C(C)(C)c4ccccc43)CC2)Cc2ccccc2)C1 [Example 43, (1S,3R)-N-((S)-4-(4-(3,3-dimethyl-2-oxoindolin-1-yl)piperidin-1-yl)-4-oxo-1-phenylbutan-2-yl)-3-(methylamino) cyclopentanecarboxamide] | ≤ 10 | –
14 | CC1(C)C(=O)N(C2CCN(C(=O)[C@H](CCc3ccccc3)NC(=O)[C@@H]3CCCNC3)CC2)c2ccc(F)cc21 [Example 44, (R)—N—((S)-1-(4-(5-fluoro-3,3-dimethyl-2-oxoindolin-1-yl)piperidin-1-yl)-1-oxo-4-phenylbutan-2-yl)piperidine-3-carboxamide] | ≤ 10 | –
15 | CN[C@@H]1CC[C@H](C(=O)N[C@@H](CCc2ccccc2)C(=O)N2CCC(N3C(=O)C(C)(C)c4cc(F)ccc43)CC2)C1 [Example 45, (1S,3R)-N-((S)-1-(4-(5-fluoro-3,3-dimethyl-2-oxoindolin-1-yl)piperidin-1-yl)-1-oxo-4-phenylbutan-2-yl)-3-(methylamino)cyclopentane-carboxamide] | ≤ 10 | –
16 | CNC(C)(C)CC(=O)N[C@@H](CCc1ccccc1)C(=O)N1CCC(N2C(=O)C(C)(C)c3cc(F)ccc32)CC1 [Example 46, (S)-N-(1-(4-(5-fluoro-3,3-dimethyl-2-oxoindolin-1-yl)piperidin-1-yl)-1-oxo-4-phenylbutan-2-yl)-3-methyl-3-(methylamino)butanamide] | ≤ 10 | –
17 | CN[C@H]1CCN(C(=O)N[C@@H](CCc2ccccc2)C(=O)N2CCC(N3C(=O)C(C)(C)c4ccccc43)CC2)C1 [Example 47, (S)—N—((S)-1-(4-(3,3-dimethyl-2-oxoindolin-1-yl)piperidin-1-yl)-1-oxo-4-phenylbutan-2-yl)-3-(methylamino)pyrrolidine-1-carboxamide] | ≤ 10 | 0.98
18 | CC1(C)C(=O)N(C2CCN(C(=O)[C@H](CCc3ccccc3)NC(=O)NC[C@@H]3CCCN3)CC2)c2ccccc21 [Example 48, 1-((S)-1-(4-(3,3-dimethyl-2-oxo-indolin-1-yl)piperidin-1-yl)-1-oxo-4-phenylbutan-2-yl)-3-((S)-pyrrolidin-2-ylmethyl)urea] | ≤ 10 | –
19 | CC1(C)C(=O)N(C2CCN(C(=O)[C@H](CCc3ccccc3)NC(=O)N[C@@H]3CCCNC3)CC2)c2ccccc21 [Example 49, 1-((S)-1-(4-(3,3-dimethyl-2-oxo-indolin-1-yl)piperidin-1-yl)-1-oxo-4-phenylbutan-2-yl)-3-((R)-piperidin-3-yl)urea] | ≤ 10 | –
